From ChEMBL document CHEMBL4364276, “Discovery of 4-phenyl-2H-benzo[b][1,4]oxazin-3(4H)-one derivatives as potent and orally active PI3K/mTOR dual inhibitors” (Eur J Med Chem, 2019)

Key:
[1] = tested on: HCT-116; assay: Antiproliferative activity against human HCT116 cells assessed as reduction in cell viability incubated for 72 hrs by MTT assay; format: functional, cell-based; conditions: HCT-116, 72 h
[2] = Inhibition of PI3K/Akt/mTOR signaling in human HeLa cells assessed as reduction in AKT 308 phosphorylation incubated for 24 hrs by Western blot analysis; format: cell-based
[3] = Inhibition of PI3K/Akt/mTOR signaling in human HeLa cells assessed as reduction in S6 phosphorylation incubated for 24 hrs by Western blot analysis; format: cell-based
[4] = Tmax in Sprague-Dawley rat at 10 mg/kg, po measured upto 24 hrs by LC-MS/MS analysis; format: ADME, organism-based; conditions: in vivo
[5] = target: Tyrosine-protein kinase ABL1 (Homo sapiens) (UniProt P00519); assay: Inhibition of human ABL1 at 100 nM using EAIYAAPFAKKK as substrate by [gamma-33P]-ATP assay
[6] = target: Tyrosine-protein kinase Blk (Homo sapiens) (UniProt P51451); assay: Inhibition of human BLK at 100 nM using poly[Glu:Tyr](4:1) as substrate by [gamma-33P]-ATP assay
[7] = target: Cyclin-dependent kinase 2/cyclin E1 (Homo sapiens) (UniProt P24864+P24941); assay: Inhibition of human CDK2/cyclin-E at 100 nM using histone H1 as substrate by [gamma-33P]-ATP assay; format: protein-complex assay
[8] = target: CDK6/cyclin D3 (Homo sapiens) (UniProt P30281+Q00534); assay: Inhibition of human CDK6/cyclin-D3 at 100 nM using RB protein as substrate by [gamma-33P]-ATP assay; format: protein-complex assay
[9] = target: Serine/threonine-protein kinase DCLK2 (Homo sapiens) (UniProt Q8N568); assay: Inhibition of human DCAMKL2 at 100 nM using KKLNRTLSFAEPG as substrate by [gamma-33P]-ATP assay
Serine/threonine-protein kinase DCLK2 (Homo sapiens), sequence (Q8N568 whole entry): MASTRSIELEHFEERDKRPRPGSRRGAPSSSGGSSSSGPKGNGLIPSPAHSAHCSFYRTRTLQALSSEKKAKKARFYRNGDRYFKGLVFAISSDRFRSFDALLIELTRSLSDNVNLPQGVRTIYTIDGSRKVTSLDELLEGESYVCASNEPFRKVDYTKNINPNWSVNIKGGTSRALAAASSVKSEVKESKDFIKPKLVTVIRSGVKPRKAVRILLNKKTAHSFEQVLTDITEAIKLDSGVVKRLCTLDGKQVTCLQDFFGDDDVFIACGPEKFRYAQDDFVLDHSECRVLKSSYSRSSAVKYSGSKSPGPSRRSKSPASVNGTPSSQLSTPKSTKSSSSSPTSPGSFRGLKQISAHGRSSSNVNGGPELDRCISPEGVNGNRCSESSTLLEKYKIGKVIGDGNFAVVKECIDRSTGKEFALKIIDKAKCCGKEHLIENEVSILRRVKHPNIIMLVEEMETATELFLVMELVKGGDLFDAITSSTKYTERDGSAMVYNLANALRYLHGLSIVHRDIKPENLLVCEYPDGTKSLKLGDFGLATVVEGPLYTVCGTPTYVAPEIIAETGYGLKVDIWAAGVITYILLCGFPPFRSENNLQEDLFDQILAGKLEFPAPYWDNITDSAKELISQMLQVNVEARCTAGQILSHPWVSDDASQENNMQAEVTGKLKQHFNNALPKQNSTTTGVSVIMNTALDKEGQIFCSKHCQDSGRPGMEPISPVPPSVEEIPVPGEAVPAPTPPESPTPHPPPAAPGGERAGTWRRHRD

[10] = target: Dual specificity tyrosine-phosphorylation-regulated kinase 2 (Homo sapiens) (UniProt Q92630); assay: Inhibition of human DYRK2 at 100 nM using RRRFRPASPLRGPPK as substrate by [gamma-33P]-ATP assay
Dual specificity tyrosine-phosphorylation-regulated kinase 2 (Homo sapiens), sequence (Q92630 whole entry): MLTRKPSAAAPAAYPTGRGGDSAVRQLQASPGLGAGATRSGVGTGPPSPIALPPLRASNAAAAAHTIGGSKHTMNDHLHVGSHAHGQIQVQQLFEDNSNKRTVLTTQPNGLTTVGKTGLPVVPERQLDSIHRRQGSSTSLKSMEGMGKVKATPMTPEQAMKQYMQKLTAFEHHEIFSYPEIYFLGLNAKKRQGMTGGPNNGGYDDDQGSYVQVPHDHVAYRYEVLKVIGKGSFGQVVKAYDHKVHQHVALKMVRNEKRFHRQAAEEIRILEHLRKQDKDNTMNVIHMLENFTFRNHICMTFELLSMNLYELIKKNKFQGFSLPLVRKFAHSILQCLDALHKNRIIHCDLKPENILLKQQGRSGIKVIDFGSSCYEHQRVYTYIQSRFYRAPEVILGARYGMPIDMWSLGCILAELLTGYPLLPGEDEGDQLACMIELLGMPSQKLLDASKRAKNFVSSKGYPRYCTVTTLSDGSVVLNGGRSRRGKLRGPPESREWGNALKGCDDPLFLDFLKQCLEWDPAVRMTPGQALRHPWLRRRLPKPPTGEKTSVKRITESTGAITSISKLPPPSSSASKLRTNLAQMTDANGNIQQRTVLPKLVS

[11] = target: Dual specificity tyrosine-phosphorylation-regulated kinase 4 (Homo sapiens) (UniProt Q9NR20); assay: Inhibition of human DYRK4 at 100 nM using RRRFRPASPLRGPPK as substrate by [gamma-33P]-ATP assay
[12] = target: Epidermal growth factor receptor (Homo sapiens) (UniProt P00533); assay: Inhibition of human EGFR at 100 nM using poly[Glu:Tyr] (4:1) as substrate by [gamma-33P]-ATP assay
[13] = target: Ephrin type-A receptor 2 (Homo sapiens) (UniProt P29317); assay: Inhibition of human EPHA2 at 100 nM using poly[Glu:Tyr] (4:1) as substrate by [gamma-33P]-ATP assay
[14] = target: Ephrin type-A receptor 3 (Homo sapiens) (UniProt P29320); assay: Inhibition of human EPHA3 at 100 nM using poly[Glu:Tyr] (4:1) as substrate by [gamma-33P]-ATP assay
Ephrin type-A receptor 3 (Homo sapiens), sequence (P29320 whole entry): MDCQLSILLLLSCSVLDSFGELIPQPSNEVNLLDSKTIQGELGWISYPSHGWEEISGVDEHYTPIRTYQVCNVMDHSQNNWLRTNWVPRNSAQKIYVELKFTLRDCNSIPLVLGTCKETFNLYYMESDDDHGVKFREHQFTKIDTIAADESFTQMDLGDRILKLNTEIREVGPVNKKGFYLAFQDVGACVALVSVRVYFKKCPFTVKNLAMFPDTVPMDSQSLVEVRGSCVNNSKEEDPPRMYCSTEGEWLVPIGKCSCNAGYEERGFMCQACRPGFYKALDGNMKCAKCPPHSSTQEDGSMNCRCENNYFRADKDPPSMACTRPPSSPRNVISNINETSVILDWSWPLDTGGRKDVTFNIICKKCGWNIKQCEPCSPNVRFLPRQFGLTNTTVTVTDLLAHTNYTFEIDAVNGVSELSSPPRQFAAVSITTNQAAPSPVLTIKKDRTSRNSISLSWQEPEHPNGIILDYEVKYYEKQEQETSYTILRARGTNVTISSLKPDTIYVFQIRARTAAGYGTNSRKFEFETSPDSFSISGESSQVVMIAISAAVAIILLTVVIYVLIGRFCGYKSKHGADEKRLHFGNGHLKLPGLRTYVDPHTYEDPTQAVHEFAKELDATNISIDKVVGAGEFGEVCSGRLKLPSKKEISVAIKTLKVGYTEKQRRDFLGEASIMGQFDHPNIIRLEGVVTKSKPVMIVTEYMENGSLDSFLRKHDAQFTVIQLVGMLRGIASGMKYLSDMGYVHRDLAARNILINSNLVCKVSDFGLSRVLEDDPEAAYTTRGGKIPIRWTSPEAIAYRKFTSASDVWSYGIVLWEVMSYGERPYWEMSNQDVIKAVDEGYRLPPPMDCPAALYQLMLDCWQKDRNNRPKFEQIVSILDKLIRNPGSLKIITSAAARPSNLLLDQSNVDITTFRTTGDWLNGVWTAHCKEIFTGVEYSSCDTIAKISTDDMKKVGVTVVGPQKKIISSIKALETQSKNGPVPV

[15] = target: Receptor tyrosine-protein kinase erbB-2 (Homo sapiens) (UniProt P04626); assay: Inhibition of human ERBB2 at 100 nM using poly[Glu:Tyr] (4:1) as substrate by [gamma-33P]-ATP assay
[16] = target: Vascular endothelial growth factor receptor 1 (Homo sapiens) (UniProt P17948); assay: Inhibition of human FLT1 at 100 nM using poly[Glu:Tyr] (4:1) as substrate by [gamma-33P]-ATP assay
[17] = target: Mitogen-activated protein kinase kinase kinase kinase 2 (Homo sapiens) (UniProt Q12851); assay: Inhibition of human GCK at 100 nM using MBP as substrate by [gamma-33P]-ATP assay
[18] = target: Glycogen synthase kinase-3 alpha (Homo sapiens) (UniProt P49840); assay: Inhibition of human GSK3A at 100 nM using YRRAAVPPSPSLSRHSSPHQ(pS)EDEEE as substrate by [gamma-33P]-ATP assay
[19] = target: Inhibitor of nuclear factor kappa-B kinase subunit beta (Homo sapiens) (UniProt O14920); assay: Inhibition of human IKKbeta at 100 nM using KKKKERLLDDRHDSGLDSMKDEE as substrate by [gamma-33P]-ATP assay
Inhibitor of nuclear factor kappa-B kinase subunit beta (Homo sapiens), sequence (O14920 whole entry): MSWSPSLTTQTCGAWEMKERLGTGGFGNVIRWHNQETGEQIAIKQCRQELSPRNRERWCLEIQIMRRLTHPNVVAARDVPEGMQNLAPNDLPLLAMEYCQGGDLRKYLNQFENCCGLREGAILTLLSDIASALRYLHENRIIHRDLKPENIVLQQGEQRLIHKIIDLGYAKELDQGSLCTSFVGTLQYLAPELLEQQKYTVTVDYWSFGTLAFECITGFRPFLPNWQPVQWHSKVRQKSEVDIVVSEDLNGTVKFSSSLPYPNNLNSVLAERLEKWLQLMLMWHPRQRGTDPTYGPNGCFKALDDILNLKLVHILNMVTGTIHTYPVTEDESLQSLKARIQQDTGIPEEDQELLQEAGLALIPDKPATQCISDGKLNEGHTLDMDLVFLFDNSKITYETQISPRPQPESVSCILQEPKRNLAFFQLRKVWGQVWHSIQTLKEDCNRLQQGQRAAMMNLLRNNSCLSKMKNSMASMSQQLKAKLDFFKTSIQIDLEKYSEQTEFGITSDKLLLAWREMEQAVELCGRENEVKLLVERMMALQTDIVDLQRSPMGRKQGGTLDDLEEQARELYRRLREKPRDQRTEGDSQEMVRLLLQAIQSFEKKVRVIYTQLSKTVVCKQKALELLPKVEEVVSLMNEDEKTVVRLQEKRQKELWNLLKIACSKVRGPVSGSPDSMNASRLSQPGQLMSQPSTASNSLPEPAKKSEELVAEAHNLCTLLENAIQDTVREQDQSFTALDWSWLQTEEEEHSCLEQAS

[20] = target: Dual specificity mitogen-activated protein kinase kinase 2 (Homo sapiens) (UniProt P36507); assay: Inhibition of human MEK2 at 100 nM using ERK2 as substrate by [gamma-33P]-ATP assay
[21] = target: Dual specificity mitogen-activated protein kinase kinase 4 (Homo sapiens) (UniProt P45985); assay: Inhibition of human MKK4 at 100 nM using JNK1 as substrate by [gamma-33P]-ATP assay
[22] = target: Ribosomal protein S6 kinase alpha-5 (Homo sapiens) (UniProt O75582); assay: Inhibition of human MSK1 at 100 nM using GRPRTSSFAEG as substrate by [gamma-33P]-ATP assay
Ribosomal protein S6 kinase alpha-5 (Homo sapiens), sequence (O75582 whole entry, looked up): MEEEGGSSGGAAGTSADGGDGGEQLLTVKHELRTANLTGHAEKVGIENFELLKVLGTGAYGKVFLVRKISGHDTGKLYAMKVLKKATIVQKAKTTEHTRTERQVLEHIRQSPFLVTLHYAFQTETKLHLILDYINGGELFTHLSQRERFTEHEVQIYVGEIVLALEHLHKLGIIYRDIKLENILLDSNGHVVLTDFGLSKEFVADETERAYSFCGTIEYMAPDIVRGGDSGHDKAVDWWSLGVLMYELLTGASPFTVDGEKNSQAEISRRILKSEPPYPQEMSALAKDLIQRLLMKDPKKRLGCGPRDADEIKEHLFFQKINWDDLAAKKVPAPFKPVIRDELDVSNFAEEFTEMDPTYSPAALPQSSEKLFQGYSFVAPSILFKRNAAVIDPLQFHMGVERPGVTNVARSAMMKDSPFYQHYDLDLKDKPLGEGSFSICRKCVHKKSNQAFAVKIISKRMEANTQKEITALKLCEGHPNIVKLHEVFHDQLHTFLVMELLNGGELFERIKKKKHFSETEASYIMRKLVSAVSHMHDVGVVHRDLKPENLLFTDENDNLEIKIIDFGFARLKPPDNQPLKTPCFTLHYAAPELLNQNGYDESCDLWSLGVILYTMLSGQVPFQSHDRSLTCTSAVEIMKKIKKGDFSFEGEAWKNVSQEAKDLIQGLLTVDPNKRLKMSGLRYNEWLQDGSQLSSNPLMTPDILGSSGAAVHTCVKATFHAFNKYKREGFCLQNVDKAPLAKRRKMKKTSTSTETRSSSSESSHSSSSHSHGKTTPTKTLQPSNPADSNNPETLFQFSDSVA

[23] = target: Muscle, skeletal receptor tyrosine-protein kinase (Homo sapiens) (UniProt O15146); assay: Inhibition of human MUSK at 100 nM using MBP as substrate by [gamma-33P]-ATP assay
[24] = target: Serine/threonine-protein kinase Nek2 (Homo sapiens) (UniProt P51955); assay: Inhibition of human NEK2 at 100 nM using MBP as substrate by [gamma-33P]-ATP assay
Serine/threonine-protein kinase Nek2 (Homo sapiens), sequence (P51955 whole entry): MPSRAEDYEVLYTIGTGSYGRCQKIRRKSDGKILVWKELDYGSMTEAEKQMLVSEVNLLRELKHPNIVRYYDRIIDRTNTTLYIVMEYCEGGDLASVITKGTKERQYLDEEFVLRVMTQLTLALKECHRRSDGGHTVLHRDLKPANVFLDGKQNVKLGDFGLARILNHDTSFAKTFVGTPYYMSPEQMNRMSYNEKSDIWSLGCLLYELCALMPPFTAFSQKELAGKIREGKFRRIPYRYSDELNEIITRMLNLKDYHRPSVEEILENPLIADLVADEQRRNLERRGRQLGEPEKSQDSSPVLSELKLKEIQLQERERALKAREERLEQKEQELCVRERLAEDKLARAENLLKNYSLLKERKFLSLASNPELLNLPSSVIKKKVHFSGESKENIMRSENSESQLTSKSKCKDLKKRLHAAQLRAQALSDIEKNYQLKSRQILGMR

[25] = target: Ribosomal protein S6 kinase beta-1 (Homo sapiens) (UniProt P23443); assay: Inhibition of human p70S6K at 100 nM using KKRNRTLTK as substrate by [gamma-33P]-ATP assay
[26] = target: Serine/threonine-protein kinase PAK 1 (Homo sapiens) (UniProt Q13153); assay: Inhibition of human PAK1 at 100 nM using RRRLSFAEPG as substrate by [gamma-33P]-ATP assay
[27] = target: Serine/threonine-protein kinase PAK 2 (Homo sapiens) (UniProt Q13177); assay: Inhibition of human PAK2 at 100 nM using RRRLSFAEPG as substrate by [gamma-33P]-ATP assay
[28] = target: Protein kinase C iota type (Homo sapiens) (UniProt P41743); assay: Inhibition of human PKCiota at 100 nM using ERMRPRKRQGSVRRRV as substrate by [gamma-33P]-ATP assay
[29] = target: Protein kinase C theta type (Homo sapiens) (UniProt Q04759); assay: Inhibition of human PKCtheta at 100 nM using Histone H1 as substrate by [gamma-33P]-ATP assay
Protein kinase C theta type (Homo sapiens), sequence (Q04759 whole entry, looked up): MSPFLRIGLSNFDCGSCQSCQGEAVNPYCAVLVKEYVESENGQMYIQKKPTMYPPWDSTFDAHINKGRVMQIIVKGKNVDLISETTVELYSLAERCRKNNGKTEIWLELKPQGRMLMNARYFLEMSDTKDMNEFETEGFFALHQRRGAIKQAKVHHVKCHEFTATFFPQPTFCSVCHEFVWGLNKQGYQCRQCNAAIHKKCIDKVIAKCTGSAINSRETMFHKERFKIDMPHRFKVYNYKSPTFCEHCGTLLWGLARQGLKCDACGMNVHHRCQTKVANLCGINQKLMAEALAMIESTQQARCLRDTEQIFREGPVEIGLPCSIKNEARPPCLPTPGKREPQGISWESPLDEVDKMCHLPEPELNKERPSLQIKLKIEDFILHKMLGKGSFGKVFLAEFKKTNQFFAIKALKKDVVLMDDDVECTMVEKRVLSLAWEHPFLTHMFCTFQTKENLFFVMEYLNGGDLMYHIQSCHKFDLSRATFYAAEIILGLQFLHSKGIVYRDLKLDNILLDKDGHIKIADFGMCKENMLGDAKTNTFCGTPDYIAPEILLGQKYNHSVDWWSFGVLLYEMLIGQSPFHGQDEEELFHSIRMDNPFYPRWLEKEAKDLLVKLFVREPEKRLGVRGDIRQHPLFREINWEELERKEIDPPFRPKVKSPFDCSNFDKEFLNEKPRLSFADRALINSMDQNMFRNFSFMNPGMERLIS

[30] = target: Mitogen-activated protein kinase kinase kinase 19 (Homo sapiens) (UniProt Q56UN5); assay: Inhibition of human YSK4 at 100 nM using MBP as substrate by [gamma-33P]-ATP assay
[31] = organism: Homo sapiens; assay: Inhibition of human AMPK (A1/B2/G1) at 100 nM using HMRSAMSGLHLVKRR as substrate by [gamma-33P]-ATP assay

For `COc1ccc(N2C(=O)COc3ccc(-c4cnc(OC)c(NS(=O)(=O)c5ccc(F)cc5)c4)cc32)cc1`, the IC50 [1] was 13.4 µM, the inhibition [2] was “Dose-dependent effect” and the inhibition [3] was “Dose-dependent effect”. It also gave a Tmax [4] of 2.67 h, an inhibition [5] of 1.19% and an inhibition [6] of 27.5%. For the same compound, the inhibition [7] was 11.2%, the inhibition [8] was 3.81% and the inhibition [9] was 2.1%. The inhibition [10] was 3.05%, the inhibition [11] was -2.6% and the inhibition [12] was 8.4%. It also gave an inhibition [13] of 19.2%, an inhibition [14] of 20.6% and an inhibition [15] of 3.37%. It also gave an inhibition [16] of 3.08%, an inhibition [17] of 1.33% and an inhibition [18] of -8.76%. For the same compound, the inhibition [19] was 14.5%, the inhibition [20] was 1.12% and the inhibition [21] was -4.2%. It also gave an inhibition [22] of 8.07%, an inhibition [23] of -3.79% and an inhibition [24] of 20.4%. It also gave an inhibition [25] of 0.03%, an inhibition [26] of 7.71% and an inhibition [27] of 10.4%. The inhibition [28] was -2.31%, the inhibition [29] was 0.73% and the inhibition [30] was 3.44%. For the same compound, the inhibition [31] was -4.96%.
